# In the NIST ThermoML archive (doi:10.1021/je101151f):
# Numbers after ± are expanded uncertainties.
# Conditions: Liquid; Manometric method
row,Normal boiling temperature [°C],SMILES
1,165.80 ± 0.31,C=C1CCC2CC1C2(C)C (stereo not drawn) [β-pinene]
2,177.19 ± 0.36,C=C(C)[C@@H]1CC=C(C)CC1 [(S)-1-methyl-4-(1-methylethenyl)cyclohexene]
3,176.24 ± 0.31,Cc1ccc(C(C)C)cc1 [1-(1-methylethyl)-4-methylbenzene]
